According to DBAASP:
In brackets after ≈: the same amount, converted by molar mass. Several values for one entry are separate records, joined by “and”; a condition that tells them apart may be missing. Equal values may be shown once. Each block holds one compound with its values, some of them ahead of it.

Legend:
Assay in all cases: ≥ marks a high value that may be exact or a test limit, other limits are often not marked, values filed in µg/mL are converted to µM
Staphylococcus aureus = tested on: Staphylococcus aureus
Streptococcus sanguinis = tested on: Streptococcus sanguinis
[1] = tested on: Aeromonas salmonicida CIP 103209T
[2] = tested on: Enterococcus faecalis CIP 76.117
[3] = tested on: Escherichia coli CIP 54.8T
[4] = tested on: Listeria monocytogenes CIP 110871
[5] = tested on: Staphylococcus aureus CIP 53.156
[6] = tested on: Vibrio vulnificus CIP 109783
[7] = tested on: Aspergillus flavus PFCC 100
[8] = tested on: Aspergillus fumigatus Af293
[9] = tested on: Aspergillus niger ATCC 9029
[10] = tested on: Candida albicans ATCC 10231
[11] = tested on: Candida glabrata ATCC 90030
Candida krusei DSM 70079 = tested on: Candida krusei DSM 70079
[12] = tested on: Escherichia coli ATCC 25922
[13] = tested on: Escherichia coli BNCC 133264
Escherichia coli = tested on: Escherichia coli
Klebsiella pneumoniae = tested on: Klebsiella pneumoniae
Listeria monocytogenes = tested on: Listeria monocytogenes
[14] = tested on: Pseudomonas aeruginosa ATCC 27853
[15] = tested on: Pseudomonas aeruginosa BNCC 125486
[16] = tested on: Staphylococcus aureus ATCC 25923
[17] = tested on: Staphylococcus aureus BNCC 186335
Enterococcus faecalis VR = tested on: Enterococcus faecalis VR
Enterococcus faecalis = tested on: Enterococcus faecalis
[18] = tested on: Escherichia coli ATCC BAA-2523
Pseudomonas aeruginosa = tested on: Pseudomonas aeruginosa
[19] = tested on: Staphylococcus aureus ATCC 29213
[20] = tested on: Staphylococcus aureus ATCC 43300
[21] = tested on: Escherichia coli BL21(DE3)
[22] = tested on: Bacillus cereus ATCC 10876
[23] = tested on: Enterococcus faecalis ATCC 29212
[24] = tested on: Salmonella enterica subsp. enterica serovar Typhimurium ATCC 14028
[25] = tested on: Staphylococcus aureus ATCC 6538
[26] = tested on: Streptococcus agalactiae ATCC 27956
[27] = tested on: Streptococcus dysgalactiae subsp. dysgalactiae ATCC 27957
[28] = tested on: Streptococcus equi subsp. zooepidemicus ATCC 43079
[29] = tested on: Streptococcus iniae KCTC 3657

Structure (SMILES): NC(=O)[C@H](Cc1ccccc1)NC(=O)[C@H](Cc1ccccc1)NC(=O)[C@H](Cc1ccccc1)NC(=O)[C@H](Cc1ccccc1)NC(=O)[C@@H](N)Cc1ccccc1 [FFFFF]
MIC (Staphylococcus aureus): 33.8 µM (≈ 25.5 µg/mL)
MIC (Streptococcus sanguinis): ≥ 36.3 µM

Structure (SMILES): CC(C)C[C@H](NC(=O)[C@@H](N)CCC(N)=O)C(=O)NCC(=O)N[C@@H](CCCN=C(N)N)C(=O)N[C@@H](CCCN=C(N)N)C(=O)N[C@@H](CCCN=C(N)N)C(=O)N[C@@H](Cc1cnc[nH]1)C(=O)N[C@@H](CCCN=C(N)N)C(=O)N[C@@H](CCCN=C(N)N)C(=O)N[C@@H](CCCN=C(N)N)C(=O)N1CCC[C@H]1C(=O)N[C@@H](CO)C(=O)N[C@@H](CCCN=C(N)N)C(=O)N[C@@H](CCCN=C(N)N)C(=O)N[C@@H](CCCN=C(N)N)C(=O)N[C@@H](CCCN=C(N)N)C(=O)N[C@@H](Cc1cnc[nH]1)C(=O)N[C@@H](Cc1c[nH]c2ccccc12)C(=O)O [QLGRRRHRRRPSRRRRHW]
MIC (Enterococcus faecalis VR): 16 µM (≈ 40.4 µg/mL)
MIC (Enterococcus faecalis): ≥ 32 µM
MIC [12]: 64 µM (≈ 161 µg/mL)
MIC [18]: ≥ 128 µM
MIC [14]: > 128 µM
MIC (Pseudomonas aeruginosa): 128 µM (≈ 323 µg/mL)
MIC [19]: 32 µM (≈ 80.7 µg/mL)
MIC [20]: 16 µM (≈ 40.4 µg/mL)

Structure (SMILES): CC[C@H](C)[C@H](NC(=O)[C@H](CC(C)C)NC(=O)[C@H](CCCN=C(N)N)NC(=O)[C@@H](NC(=O)[C@H](CC(C)C)NC(=O)[C@H](CCCN=C(N)N)NC(=O)[C@@H](N)CCCN=C(N)N)[C@@H](C)CC)C(=O)N[C@@H](CC(C)C)C(=O)N[C@@H](CCCN=C(N)N)C(=O)N[C@@H](CC(C)C)C(=O)N[C@@H](CC(C)C)C(=O)N[C@@H](CCCN=C(N)N)C(N)=O [RRLIRLILRLLR]
MIC [21]: 4 µM and 8 µM

Structure (SMILES): CC[C@H](C)[C@H](NC(=O)[C@H](CCCN=C(N)N)NC(=O)[C@H](Cc1c[nH]c2ccccc12)NC(=O)CNC(=O)[C@H](Cc1ccc(O)cc1)NC(=O)[C@H](CCCN=C(N)N)NC(=O)[C@H](CCCN=C(N)N)NC(=O)[C@H](C)NC(=O)[C@H](Cc1ccccc1)NC(=O)[C@H](CCCN=C(N)N)NC(=O)CNC(=O)[C@H](C)NC(=O)CNC(=O)[C@H](CCCN=C(N)N)NC(=O)[C@@H](NC(=O)[C@H](Cc1ccccc1)NC(=O)[C@H](CCCN=C(N)N)NC(=O)[C@H](CCCN=C(N)N)NC(=O)[C@H](Cc1c[nH]c2ccccc12)NC(=O)[C@H](CCCN=C(N)N)NC(=O)[C@H](CO)NC(=O)[C@H](CCCN=C(N)N)NC(=O)[C@@H](N)[C@@H](C)O)[C@@H](C)CC)C(=O)N[C@@H](C)C(=O)O [TRSRWRRFIRGAGRFARRYGWRIA]
MIC [22]: 3.28 µM (≈ 10 µg/mL)
MIC [23]: 13.1 µM (≈ 40 µg/mL)
MIC [12]: 0.328 µM (≈ 1 µg/mL)
MIC (Escherichia coli): 1.54 µM (≈ 4.7 µg/mL)
MIC (Klebsiella pneumoniae): 0.387 µM (≈ 1.18 µg/mL)
MIC [14]: 0.983 µM (≈ 3 µg/mL)
MIC [24]: 0.164 µM (≈ 0.5 µg/mL)
MIC [19]: > 41.9 µM
MIC [25]: 1.3 µM (≈ 3.97 µg/mL)
MIC [26]: 13.1 µM (≈ 40 µg/mL)
MIC [27]: 13.1 µM (≈ 40 µg/mL)
MIC [28]: 6.6 µM (≈ 20.1 µg/mL)
MIC [29]: 10.5 µM (≈ 32 µg/mL)

Further lines, results first:

MIC [1]: 7.07 µM (≈ 17 µg/mL)
MIC [2]: 15.8 µM (≈ 38.1 µg/mL)
MIC [3]: 15.8 µM (≈ 38.1 µg/mL)
MIC [4]: 15.8 µM (≈ 38.1 µg/mL)
MIC [5]: 7.07 µM (≈ 17 µg/mL)
MIC [6]: ≥ 35.4 µM
Structure (SMILES): CC[C@H](C)[C@H](NC(=O)[C@H](CC(C)C)NC(=O)[C@H](CC(=O)O)NC(=O)[C@H](Cc1cnc[nH]1)NC(=O)[C@@H](NC(=O)[C@H](CO)NC(=O)[C@H](CCCCN)NC(=O)CNC(=O)[C@@H](NC(=O)[C@H](Cc1cnc[nH]1)NC(=O)[C@H](Cc1ccccc1)NC(=O)[C@H](CC(C)C)NC(=O)CNC(=O)CNC(=O)[C@@H](NC(=O)[C@@H](NC(=O)[C@H](Cc1cnc[nH]1)NC(=O)[C@H](Cc1cnc[nH]1)NC(=O)[C@@H](NC(=O)[C@@H](N)Cc1ccccc1)[C@@H](C)CC)[C@@H](C)CC)[C@@H](C)CC)C(C)C)[C@@H](C)CC)C(=O)N[C@@H](CCCN=C(N)N)C(=O)O [FIHHIIGGLFHVGKSIHDLIR]

MIC [7]: 13.3 µM (≈ 32 µg/mL)
MIC [8]: 6.66 µM (≈ 16 µg/mL)
MIC [9]: 6.66 µM (≈ 16 µg/mL)
MIC [10]: 6.66 µM (≈ 16 µg/mL)
MIC [11]: 3.33 µM (≈ 8 µg/mL)
MIC (Candida krusei DSM 70079): 6.66 µM (≈ 16 µg/mL)
Structure (SMILES): CC[C@H](C)[C@H](NC(=O)CNC(=O)[C@@H](NC(=O)[C@H](Cc1ccccc1)NC(=O)[C@H](C)NC(=O)[C@H](CCCCN)NC(=O)[C@@H](NC(=O)[C@H](CO)NC(=O)[C@@H](N)CC(C)C)C(C)C)[C@@H](C)O)C(=O)N[C@@H](CCC(N)=O)C(=O)N[C@@H](CC(C)C)C(=O)N[C@@H](CCCN=C(N)N)C(=O)NCC(=O)N[C@H](C(=O)N[C@@H](CS)C(=O)NCC(=O)N[C@H](C(=O)N[C@@H](CCC(=O)O)C(=O)N[C@H](C(=O)N[C@@H](CCCCN)C(=O)N[C@@H](C)C(=O)N[C@@H](CCCN=C(N)N)C(=O)NCC(=O)O)C(C)C)[C@@H](C)CC)C(C)C [LSVKAFTGIQLRGVCGIEVKARG]

MIC [12]: 1.5 µM (≈ 3.16 µg/mL)
MIC [13]: 1.9 µM (≈ 4 µg/mL)
MIC (Escherichia coli): 1.9 µM (≈ 4 µg/mL)
MIC (Klebsiella pneumoniae): 6.25 µM (≈ 13.2 µg/mL)
MIC (Listeria monocytogenes): 1.9 µM (≈ 4 µg/mL)
MIC [14]: 1.5 µM (≈ 3.16 µg/mL)
MIC [15]: 1.9 µM (≈ 4 µg/mL)
MIC [16]: 3 µM (≈ 6.32 µg/mL)
MIC [17]: 0.949 µM (≈ 2 µg/mL)
Structure (SMILES): CC[C@H](C)[C@H](NC(=O)[C@H](CCCCN)NC(=O)[C@H](CC(N)=O)NC(=O)[C@H](CC(C)C)NC(=O)[C@@H](NC(=O)[C@H](CCCCN)NC(=O)[C@@H]1CCCN1)[C@@H](C)CC)C(=O)N[C@@H](CC(C)C)C(=O)NCC(=O)N[C@@H](CCCCN)C(=O)N[C@H](C(=O)N[C@@H](CC(C)C)C(=O)N[C@@H](CCCN=C(N)N)C(=O)N[C@@H](CC(C)C)C(=O)N[C@@H](C)C(=O)N[C@@H](C)C(=O)N[C@@H](C)C(=O)N[C@@H](Cc1ccccc1)C(=O)N[C@@H](CCCCN)C(N)=O)[C@@H](C)CC [PKILNKILGKILRLAAAFK]
